Assay results from US20090156577A1, “7-AMINO ALKYLIDENYL-HETEROCYCLIC QUINOLONES AND NAPHTHYRIDONES” (priority 2004, published 2009).
Values after ≈ are worked out from the molar mass of the structure shown. Like-named read-outs stand apart in the source and are kept apart here.

Test system: pathogenic bacteria
Assay: MIC by microdilution broth method (NCCLS M7-A4), in vitro antibacterial activity
Assay type: cell-based
Protocol: Minimal inhibitory concentration (MIC) has been an indicator of in vitro antibacterial activity widely used in the art. The in vitro antimicrobial activity of the compounds was determined by the microdilution broth method following the test method from the National Committee for Clinical Laboratory Standards (NCCLS). This method is described in the NCCLS Document M7-A4, Vol. 17, No. 2, “Methods for Dilution Antimicrobial Susceptibility Test for Bacteria that Grow Aerobically—Fourth Edition”, which is incorporated herein by reference.
In this method two-fold serial dilutions of drug in cation adjusted Mueller-Hinton broth are added to wells in microdilution trays. The test organisms are prepared by adjusting the turbidity of actively growing broth cultures so that the final concentration of test organism after it is added to the wells is approximately 5×10^4 CFU/well.
Following inoculation of the microdilution trays, the trays are incubated at 35° C. for 16-20 hours and then read. […] The amount of growth in the wells containing the test compound is compared with the amount of growth in the growth-control wells (no test compound) used in each tray. As set forth in Table 5, compounds of the present invention were tested against a variety of pathogenic bacteria resulting in a range of activities depending on the organism tested.

[1] = Staphylococcus aureus, Organism A: Staphylococcus aureus OC4172, read-out: MIC
[2] = Streptococcus pneumoniae, ATCC49619, Organism E: Streptococcus pneumoniae ATCC 49619, read-out: MIC
[3] = Streptococcus pneumoniae, Organism C: fluoroquinolone-resistant clinical isolate of Streptococcus pneumoniae (QRDR amino acid substitutions)
[4] = Streptococcus pneumoniae, Organism D: fluoroquinolone-resistant clinical isolate of Streptococcus pneumoniae (QRDR amino acid substitutions)
[5] = Streptococcus pneumoniae, Organism B: fluoroquinolone-resistant clinical isolate of Streptococcus pneumoniae (QRDR amino acid substitutions)

O=C(O)c1cn(C2CC2)c2nc(N3CCC(=C(Cl)CN4CCCCC4)CC3)c(F)cc2c1=O [Compound 181, 7-[4-(1-Chloro-2-piperidin-1-yl-ethylidene)-piperidin-1-yl]-1-cyclopropyl-6-fluoro-4-oxo-1,4-dihydro-[1,8]naphthyridine-3-carboxylic acid]
MIC [1]: 1 µg/mL (≈ 2.11 µM)
MIC [2]: 2 µg/mL (≈ 4.21 µM)
MIC [3]: > 16 µg/mL
MIC [4]: 8 µg/mL (≈ 16.8 µM)

CN(C)CC(F)=C1CCN(c2nc3c(cc2F)c(=O)c(C(=O)O)cn3C2CC2)CC1 [Compound 182, 1-Cyclopropyl-7-[4-(2-dimethylamino-1-fluoro-ethylidene)-piperidin-1-yl]-6-fluoro-4-oxo-1,4-dihydro-[1,8]naphthyridine-3-carboxylic acid]
MIC [1]: 0.06 µg/mL (≈ 0.143 µM)
MIC [2]: 0.25 µg/mL (≈ 0.597 µM)
MIC [3]: 1 µg/mL (≈ 2.39 µM)
MIC [4]: 2 µg/mL (≈ 4.78 µM)

NCC(F)=C1CN(c2nc3c(cc2F)c(=O)c(C(=O)O)cn3-c2ccc(F)cc2F)C1 [Compound 183, 7-[3-(2-Amino-1-fluoro-ethylidene)-azetidin-1-yl]-1-(2,4-difluoro-phenyl)-6-fluoro-4-oxo-1,4-dihydro-[1,8]naphthyridine-3-carboxylic acid]
MIC [1]: 0.12 µg/mL (≈ 0.276 µM)
MIC [2]: 0.25 µg/mL (≈ 0.576 µM)
MIC [3]: 2 µg/mL (≈ 4.6 µM)
MIC [4]: 2 µg/mL (≈ 4.6 µM)

O=C(O)c1cn(-c2ccc(F)cc2F)c2nc(N3CCC(=CCO)CC3)c(F)cc2c1=O [Compound 185, 1-(2,4-Difluoro-phenyl)-6-fluoro-7-[4-(2-hydroxy-ethylidene)-piperidin-1-yl]-4-oxo-1,4-dihydro-[1,8]naphthyridine-3-carboxylic acid]
MIC [1]: 0.12 µg/mL (≈ 0.269 µM)
MIC [2]: 1 µg/mL (≈ 2.25 µM)
MIC [5]: 16 µg/mL (≈ 35.9 µM)
MIC [3]: 16 µg/mL (≈ 35.9 µM)

COc1c(N2CC(=C(Cl)CN)C2)c(F)cc2c(=O)c(C(=O)O)cn(C3CC3)c12 [Compound 189, 7-[3-(2-Amino-1-chloro-ethylidene)-azetidin-1-yl]-1-cyclopropyl-6-fluoro-8-methoxy-4-oxo-1,4-dihydro-quinoline-3-carboxylic acid]
MIC [1]: < 0.12 µg/mL
MIC [2]: 2 µg/mL (≈ 4.9 µM)
MIC [5]: 4 µg/mL (≈ 9.81 µM)
MIC [3]: 2 µg/mL (≈ 4.9 µM)
MIC [4]: 4 µg/mL (≈ 9.81 µM)

COc1c(N2CCC(=C(Cl)CN(C)C)CC2)c(F)cc2c(=O)c(C(=O)O)cn(C3CC3)c12 [Compound 191, 7-[4-(1-Chloro-2-dimethylamino-ethylidene)-piperidin-1-yl]-1-cyclopropyl-6-fluoro-8-methoxy-4-oxo-1,4-dihydro-quinoline-3-carboxylic acid]
MIC [1]: 0.25 µg/mL (≈ 0.539 µM)
MIC [2]: 0.5 µg/mL (≈ 1.08 µM)
MIC [5]: 8 µg/mL (≈ 17.2 µM)
MIC [3]: 8 µg/mL (≈ 17.2 µM)
MIC [4]: 2 µg/mL (≈ 4.31 µM)

COc1c(N2CCC(=C(Cl)CN3CCCC3)CC2)c(F)cc2c(=O)c(C(=O)O)cn(C3CC3)c12 [Compound 193, 7-[4-(1-Chloro-2-pyrrolidin-1-yl-ethylidene)-piperidin-1-yl]-1-cyclopropyl-6-fluoro-8-methoxy-4-oxo-1,4-dihydro-quinoline-3-carboxylic acid]
MIC [1]: 0.12 µg/mL (≈ 0.245 µM)
MIC [2]: 0.5 µg/mL (≈ 1.02 µM)
MIC [5]: 8 µg/mL (≈ 16.3 µM)
MIC [3]: 8 µg/mL (≈ 16.3 µM)
MIC [4]: 2 µg/mL (≈ 4.08 µM)

COc1c(N2CCC(=C(Cl)CN3CCCCC3)CC2)c(F)cc2c(=O)c(C(=O)O)cn(C3CC3)c12 [Compound 194, 7-[4-(1-Chloro-2-piperidin-1-yl-ethylidene)-piperidin-1-yl]-1-cyclopropyl-6-fluoro-8-methoxy-4-oxo-1,4-dihydro-quinoline-3-carboxylic acid]
MIC [1]: 0.12 µg/mL (≈ 0.238 µM)
MIC [2]: 0.5 µg/mL (≈ 0.992 µM)
MIC [5]: 2 µg/mL (≈ 3.97 µM)
MIC [3]: 4 µg/mL (≈ 7.94 µM)
MIC [4]: 1 µg/mL (≈ 1.98 µM)

COc1c(N2CCC(=C(Cl)CN3CCOCC3)CC2)c(F)cc2c(=O)c(C(=O)O)cn(C3CC3)c12 [Compound 195, 7-[4-(1-Chloro-2-morpholin-4-yl-ethylidene)-piperidin-1-yl]-1-cyclopropyl-6-fluoro-8-methoxy-4-oxo-1,4-dihydro-quinoline-3-carboxylic acid]
MIC [1]: 0.12 µg/mL (≈ 0.237 µM)
MIC [2]: 1 µg/mL (≈ 1.98 µM)
MIC [5]: 8 µg/mL (≈ 15.8 µM)
MIC [3]: 8 µg/mL (≈ 15.8 µM)
MIC [4]: 2 µg/mL (≈ 3.95 µM)

COc1c(N2CCC(=C(Cl)CNC(C)C)CC2)c(F)cc2c(=O)c(C(=O)O)cn(C3CC3)c12 [Compound 196, 7-[4-(1-Chloro-2-isopropylamino-ethylidene)-piperidin-1-yl]-1-cyclopropyl-6-fluoro-8-methoxy-4-oxo-1,4-dihydro-quinoline-3-carboxylic acid]
MIC [1]: 0.12 µg/mL (≈ 0.251 µM)
MIC [2]: 0.5 µg/mL (≈ 1.05 µM)
MIC [3]: 4 µg/mL (≈ 8.37 µM)
MIC [4]: 2 µg/mL (≈ 4.18 µM)

COc1c(N2CCC(=C(F)CN(C)C)CC2)c(F)cc2c(=O)c(C(=O)O)cn(C3CC3)c12 [Compound 199, 1-Cyclopropyl-7-[4-(2-dimethylamino-1-fluoro-ethylidene)-piperidin-1-yl]-6-fluoro-8-methoxy-4-oxo-1,4-dihydro-quinoline-3-carboxylic acid]
MIC [1]: 0.06 µg/mL (≈ 0.134 µM)
MIC [2]: 0.25 µg/mL (≈ 0.559 µM)
MIC [5]: 1 µg/mL (≈ 2.23 µM)
MIC [3]: 2 µg/mL (≈ 4.47 µM)
MIC [4]: 1 µg/mL (≈ 2.23 µM)

COc1c(N2CCC(=C(CN)CCO)CC2)c(F)cc2c(=O)c(C(=O)O)cn(C3CC3)c12 [Compound 201, 7-[4-(1-Aminomethyl-3-hydroxy-propylidene)-piperidin-1-yl]-1-cyclopropyl-6-fluoro-8-methoxy-4-oxo-1,4-dihydro-quinoline-3-carboxylic acid]
MIC [1]: 0.12 µg/mL (≈ 0.269 µM)
MIC [2]: 0.5 µg/mL (≈ 1.12 µM)
MIC [3]: 2 µg/mL (≈ 4.49 µM)
MIC [4]: 8 µg/mL (≈ 18 µM)

C=C(C)CC(CN)=C1CCN(c2c(F)cc3c(=O)c(C(=O)O)cn(C4CC4)c3c2OC)CC1 [Compound 202, 7-[4-(1-Aminomethyl-3-methyl-but-3-enylidene)-piperidin-1-yl]-1-cyclopropyl-6-fluoro-8-methoxy-4-oxo-1,4-dihydro-quinoline-3-carboxylic acid]
MIC [1]: 0.5 µg/mL (≈ 1.1 µM)
MIC [2]: 2 µg/mL (≈ 4.39 µM)
MIC [5]: 16 µg/mL (≈ 35.1 µM)
MIC [3]: 16 µg/mL (≈ 35.1 µM)
MIC [4]: 8 µg/mL (≈ 17.6 µM)

C=CCC(CN)=C1CCN(c2c(F)cc3c(=O)c(C(=O)O)cn(C4CC4)c3c2OC)CC1 [Compound 203, 7-[4-(1-Aminomethyl-but-3-enylidene)-piperidin-1-yl]-1-cyclopropyl-6-fluoro-8-methoxy-4-oxo-1,4-dihydro-quinoline-3-carboxylic acid]
MIC [1]: 0.06 µg/mL (≈ 0.136 µM)
MIC [2]: 0.12 µg/mL (≈ 0.272 µM)
MIC [5]: 0.06 µg/mL (≈ 0.136 µM)
MIC [3]: 1 µg/mL (≈ 2.26 µM)
MIC [4]: 0.5 µg/mL (≈ 1.13 µM)

COc1c(N2CCC(=C(Br)CN)CC2)c(F)cc2c(=O)c(C(=O)O)cn(C3CC3)c12 [Compound 204, 7-[4-(2-Amino-1-bromo-ethylidene)-piperidin-1-yl]-1-cyclopropyl-6-fluoro-8-methoxy-4-oxo-1,4-dihydro-quinoline-3-carboxylic acid]
MIC [1]: 0.25 µg/mL (≈ 0.52 µM)
MIC [2]: 0.12 µg/mL (≈ 0.25 µM)
MIC [5]: 0.5 µg/mL (≈ 1.04 µM)
MIC [3]: 0.5 µg/mL (≈ 1.04 µM)
MIC [4]: 0.5 µg/mL (≈ 1.04 µM)

NCC(Cl)=C1CN(c2c(F)cc3c(=O)c(C(=O)O)cn(C4CC4)c3c2OC(F)F)C1 [Compound 205, 7-[3-(2-Amino-1-chloro-ethylidene)-azetidin-1-yl]-1-cyclopropyl-8-difluoromethoxy-6-fluoro-4-oxo-1,4-dihydro-quinoline-3-carboxylic acid]
MIC [1]: 0.25 µg/mL (≈ 0.563 µM)
MIC [2]: 0.5 µg/mL (≈ 1.13 µM)
MIC [5]: 2 µg/mL (≈ 4.51 µM)
MIC [3]: 8 µg/mL (≈ 18 µM)
MIC [4]: 4 µg/mL (≈ 9.01 µM)

CN(CC(Cl)=C1CCN(c2c(F)cc3c(=O)c(C(=O)O)cn(C4CC4)c3c2OC(F)F)CC1)Cc1ccccc1 [Compound 206, 7-{4-[2-(Benzyl-methyl-amino)-1-chloro-ethylidene]-piperidin-1-yl}-1-cyclopropyl-8-difluoromethoxy-6-fluoro-4-oxo-1,4-dihydro-quinoline-3-carboxylic acid]
MIC [1]: 1 µg/mL (≈ 1.74 µM)
MIC [2]: 4 µg/mL (≈ 6.94 µM)
MIC [3]: 4 µg/mL (≈ 6.94 µM)
MIC [4]: 4 µg/mL (≈ 6.94 µM)

CN(CC(F)=C1CCN(c2c(F)cc3c(=O)c(C(=O)O)cn(C4CC4)c3c2OC(F)F)CC1)Cc1ccccc1 [Compound 207, 7-{4-[2-(Benzyl-methyl-amino)-1-fluoro-ethylidene]-piperidin-1-yl}-1-cyclopropyl-8-difluoromethoxy-6-fluoro-4-oxo-1,4-dihydro-quinoline-3-carboxylic acid]
MIC [1]: 1 µg/mL (≈ 1.79 µM)
MIC [2]: 4 µg/mL (≈ 7.15 µM)
MIC [5]: 8 µg/mL (≈ 14.3 µM)
MIC [3]: 8 µg/mL (≈ 14.3 µM)
MIC [4]: 2 µg/mL (≈ 3.57 µM)

NCC(F)=C1CCN(c2cc3c(cc2F)c(=O)c(C(=O)O)cn3C2CC2)CC1 [Compound 208, 7-[4-(2-Amino-1-fluoro-ethylidene)-piperidin-1-yl]-1-cyclopropyl-6-fluoro-4-oxo-1,4-dihydro-quinoline-3-carboxylic acid]
MIC (Organism A: Staphylococcus aureus OC4172): 0.06 µg/mL (≈ 0.154 µM)
MIC (Organism C: fluoroquinolone-resistant clinical isolate of Streptococcus pneumoniae (QRDR amino acid substitutions)): 2 µg/mL (≈ 5.14 µM)
MIC (Organism E: Streptococcus pneumoniae ATCC 49619): 0.25 µg/mL (≈ 0.642 µM)
MIC [5]: 0.25 µg/mL (≈ 0.642 µM)
MIC [4]: 0.25 µg/mL (≈ 0.642 µM)

COc1c(N2CC(=C(Cl)CN)C2)ccc2c(=O)c(C(=O)O)cn(C3CC3)c12 [Compound 209, 7-[3-(2-Amino-1-chloro-ethylidene)-azetidin-1-yl]-1-cyclopropyl-8-methoxy-4-oxo-1,4-dihydro-quinoline-3-carboxylic acid]
MIC [1]: 0.12 µg/mL (≈ 0.308 µM)
MIC [2]: 2 µg/mL (≈ 5.13 µM)
MIC [3]: 8 µg/mL (≈ 20.5 µM)
MIC [4]: 16 µg/mL (≈ 41 µM)

CC1COc2c(N3CCC(=CCN)C(O)C3)c(F)cc3c(=O)c(C(=O)O)cn1c23 (stereo not drawn) [Compound 210, 9-[4-(2-Amino-ethylidene)-3-hydroxy-piperidin-1-yl]-8-fluoro-3-methyl-6-oxo-2,3-dihydro-6H-1-oxa-3a-aza-phenalene-5-carboxylic acid]
MIC [1]: 8 µg/mL (≈ 19.8 µM)
MIC [2]: > 16 µg/mL
MIC [5]: 16 µg/mL (≈ 39.7 µM)
MIC [3]: 16 µg/mL (≈ 39.7 µM)
